This is an account of results in patent US20260216157A1, “TETRAHYDROTHIOPHENE DERIVATIVE AND USE THEREOF IN MEDICINE” (Haisco Pharmaceutical Group Co., Ltd., priority 2023, published 2026).

By IC50 is commonly meant the concentration at which inhibition is half-maximal. What is called AUC(0-t) is the area under the concentration-time curve up to a stated or last time point.

SMILES strings stand for the structures. A value given as a limit tells only on which side of the number the result lay.

T1 sequence (Q9Y5Y9 whole entry): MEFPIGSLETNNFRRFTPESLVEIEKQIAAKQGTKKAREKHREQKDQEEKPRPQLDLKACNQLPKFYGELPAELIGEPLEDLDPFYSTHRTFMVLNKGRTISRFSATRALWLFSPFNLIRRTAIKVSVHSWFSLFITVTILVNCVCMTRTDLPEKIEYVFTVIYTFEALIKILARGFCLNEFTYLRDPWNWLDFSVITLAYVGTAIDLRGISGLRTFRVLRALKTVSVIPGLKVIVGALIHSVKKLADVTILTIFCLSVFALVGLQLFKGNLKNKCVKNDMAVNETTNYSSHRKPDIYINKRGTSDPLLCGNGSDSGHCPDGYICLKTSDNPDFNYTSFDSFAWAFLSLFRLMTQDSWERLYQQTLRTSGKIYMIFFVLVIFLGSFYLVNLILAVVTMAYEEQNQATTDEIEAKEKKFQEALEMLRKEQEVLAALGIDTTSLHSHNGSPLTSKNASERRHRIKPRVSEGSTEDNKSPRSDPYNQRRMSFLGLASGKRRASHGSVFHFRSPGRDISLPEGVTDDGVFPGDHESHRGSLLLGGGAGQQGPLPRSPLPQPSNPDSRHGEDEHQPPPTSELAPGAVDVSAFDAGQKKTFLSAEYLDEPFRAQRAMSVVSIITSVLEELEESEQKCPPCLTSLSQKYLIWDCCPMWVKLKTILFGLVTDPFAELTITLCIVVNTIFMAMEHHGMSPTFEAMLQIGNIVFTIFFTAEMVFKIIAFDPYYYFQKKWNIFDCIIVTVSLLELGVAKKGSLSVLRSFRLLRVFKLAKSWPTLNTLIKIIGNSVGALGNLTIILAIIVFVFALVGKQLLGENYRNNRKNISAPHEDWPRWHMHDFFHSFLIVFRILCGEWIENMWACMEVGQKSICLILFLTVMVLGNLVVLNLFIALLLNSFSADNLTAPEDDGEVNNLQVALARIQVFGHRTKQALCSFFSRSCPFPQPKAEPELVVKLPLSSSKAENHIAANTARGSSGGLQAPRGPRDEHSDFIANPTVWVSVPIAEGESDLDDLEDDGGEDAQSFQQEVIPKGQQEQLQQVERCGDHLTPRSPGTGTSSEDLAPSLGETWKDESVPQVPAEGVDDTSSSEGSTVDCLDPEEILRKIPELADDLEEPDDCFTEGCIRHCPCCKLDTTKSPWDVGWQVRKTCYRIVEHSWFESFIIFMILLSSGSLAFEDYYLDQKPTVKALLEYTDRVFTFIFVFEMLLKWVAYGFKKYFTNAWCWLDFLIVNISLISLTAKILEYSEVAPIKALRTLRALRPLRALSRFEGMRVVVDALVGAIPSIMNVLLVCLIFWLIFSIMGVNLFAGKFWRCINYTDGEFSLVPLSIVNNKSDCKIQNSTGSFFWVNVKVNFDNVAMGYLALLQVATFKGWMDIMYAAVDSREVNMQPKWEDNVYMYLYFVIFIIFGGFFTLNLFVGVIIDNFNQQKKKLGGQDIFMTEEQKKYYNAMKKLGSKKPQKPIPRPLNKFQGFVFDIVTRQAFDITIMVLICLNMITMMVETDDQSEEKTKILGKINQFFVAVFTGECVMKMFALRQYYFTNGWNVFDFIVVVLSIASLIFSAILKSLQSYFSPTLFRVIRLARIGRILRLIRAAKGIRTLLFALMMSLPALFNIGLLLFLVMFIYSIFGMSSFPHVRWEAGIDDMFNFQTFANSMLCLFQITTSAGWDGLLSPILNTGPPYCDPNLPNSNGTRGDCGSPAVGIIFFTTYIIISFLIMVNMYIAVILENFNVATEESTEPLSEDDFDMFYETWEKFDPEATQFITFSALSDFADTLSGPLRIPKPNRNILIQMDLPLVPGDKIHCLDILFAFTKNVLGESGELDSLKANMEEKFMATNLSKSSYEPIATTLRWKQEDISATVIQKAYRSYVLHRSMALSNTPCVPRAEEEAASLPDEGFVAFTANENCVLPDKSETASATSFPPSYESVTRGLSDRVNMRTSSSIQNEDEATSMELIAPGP

The first data set concerns Spinal nerve ligation (SNL)-induced mouse model of neuropathic pain. The data set can be described thus: Spinal nerve ligation (SNL)-induced mouse model of neuropathic pain. Conditions: 3 mg/kg intragastric, SNL mice, mechanical pain threshold. It is filed as in vivo, C57BL/6J mice. Here is the method:
Biological Test Example 8: Spinal Nerve Ligation (SNL)-Induced Mouse Model of Neuropathic Pain
Male C57BL/6J mice purchased from Zhejiang Vital River Laboratory Animal Technology Co., Ltd. were adaptively raised for one week and then the models were established. […]
The mice that were unsuccessful in modeling were eliminated the next day after modeling (marker for successful modeling: mice with their hind paws curled up). […] After grouping, the test compounds (3 and 30 mg/kg) or vehicles (0.5% methylcellulose) were administered intragastrically, and the mechanical pain threshold (MPT) of the mice was measured at different time points after the administration. […]
As for `COc1c([C@H]2[C@H](C(=O)Nc3ccc(F)c(C(N)=O)c3)S[C@@](C)(C(F)(F)F)[C@H]2C)ccc(F)c1F` [Compound 6-2a], the “analgesic efficacy (area under the time-MPT curve)” value is “significant analgesic efficacy”.

Staying with this data set, now noted: 30 mg/kg intragastric, SNL mice, mechanical pain threshold.
`COc1c([C@H]2[C@H](C(=O)Nc3ccc(F)c(C(N)=O)c3)S[C@@](C)(C(F)(F)F)[C@H]2C)ccc(F)c1F` [Compound 6-2a]: the “analgesic efficacy (area under the time-MPT curve)” value is given as “significant analgesic efficacy”.

The next data set concerns the target T1, hNav1.8 (Homo sapiens, UniProt Q9Y5Y9).
T1 construct: expressed in transfected cells; host or cells: CHO
The data set can be described thus: Nav1.8 manual patch clamp test. It is filed as cell-based. Particulars: CHO cells stably expressing human Nav1.8; whole-cell patch clamp, half-inactivated state; read-out: Inhibitory activity (IC50) against hNav1.8. Here is the method: Nav1.8 Manual Patch Clamp Test
CHO cell lines stably expressing human Nav1.8 were cultured in a Ham's F-12 medium containing 10% fetal bovine serum, 10 μg/mL Blasticidin, 200 μg/mL Hygromycin B and 100 μg/mL Zeocin. The cells were cultured at 37° C. with a carbon dioxide concentration of 5%. The old medium was removed, and the cells were rinsed once with PBS. Then, 1 mL of 0.25%-Trypsin-EDTA solution was added, and the cells were incubated at 37° C. for approximately 1.5 min. Once the cells detached from the bottom of the dish, complete medium pre-warmed to 37° C. was added. The cell suspension was gently triturated with a pipette to dissociate the clumped cells. The cell suspension was transferred to a sterile centrifuge tube and centrifuged at 1000 rpm for 5 min to collect the cells. The cells were seeded into 6 cm cell culture dishes at a density of 2.5×10^5 cells per cell culture dish (final volume: 5 mL) for expansion or maintenance culture. To maintain the electrophysiological activity of the cells, the cell density should not exceed 80%. Before patch clamp testing, the cells were dissociated with 0.25%-Trypsin-EDTA. 6.5×10^3 cells were plated onto coverslips and cultured in 24-well plates (final volume: […]) for 18 hours before detection.
The compound was dissolved in dimethyl sulfoxide (DMSO) and prepared into a 30 mM DMSO stock solution. The stock solution was diluted with the extracellular fluid (140 mM NaCl, 3.5 mM KCl, 1 mM MgCl2·6H2O, 2 mM CaCl2·2H2O, 10 mM D-Glucose, 10 mM HEPES and 1.25 mM NaH2PO4·2H2O; adjusted to pH 7.4 with NaOH) to the test concentration, and the final DMSO concentration of all test samples was 0.1%.
(3) Electrophysiological Test
First, the recording electrodes were pulled from capillary glass tubes by using a microelectrode puller. Then, the electrodes were filled with the intracellular fluid (50 mM CsCl, 10 mM NaCl, 10 mM HEPES, 60 mM CsF and 20 mM EGTA; adjusted to pH 7.2 with CsOH) and mounted onto the microelectrode holder. Under an inverted microscope, the microelectrode manipulator was used to immerse the electrodes into the extracellular fluid, and the pipette resistance (Rpip) was recorded. The electrodes were slowly brought into contact with the cell surface, and negative pressure suction was applied to form a […]. At this point, fast capacitance compensation was performed, and negative pressure was continuously applied to break the cell membrane, forming a whole-cell recording mode. Finally, slow capacitance compensation was performed, and experimental parameters such as series resistance (Rs) were recorded. No electric leakage compensation was applied. When the Nav1.8 current in whole-cell recording was stable, drug administration was initiated, with each drug concentration for approximately 5 min (or until the current was stable). The coverslips spread with the cells were placed in a recording chamber under the inverted microscope. The blank control extracellular fluid and the test compound working solution were perfused through the recording chamber via the gravity-driven perfusion method, thereby acting on the cells, and a peristaltic pump was used to facilitate liquid exchange. The current recorded from cells in compound-free extracellular fluid was used as the control group. All electrophysiological experiments were conducted at room temperature. The inhibition rate of compounds on Nav1.8 was determined by calculating the relative percentage of peak currents generated before and after the cells were treated with the compounds.
The voltage stimulation protocol for whole-cell patch clamp recording of Nav1.8 sodium currents was described as follows. When the whole-cell sealing was formed, the cells were clamped at a voltage of −120 mV. First, the voltage was stepped from −110 mV to −30 mV in 10 mV increments and maintained for 5 s, followed by a depolarizing pulse to 0 mV to obtain a half-inactivation voltage (Vhalf). […]
Background: In patch-clamp work, channel activity is measured electrically.
On to `COc1c(C2CC(C)(C(F)(F)F)SC2C(=O)Nc2ccnc(C(N)=O)c2)ccc(F)c1F` (single isomer, unassigned) [Compound 31-1P1], for which the IC50 is under 0.1 nM. On the same count and under the same terms, then `COc1c([C@H]2[C@H](C(=O)Nc3ccc(F)c(C(N)=O)c3)S[C@@](C)(C(F)(F)F)[C@H]2C)ccc(F)c1F` [Compound 6-2a], with under 0.1 nM; and `COc1c([C@H]2[C@H](C(=O)Nc3ccc(F)c(C(=O)O)c3)S[C@@](C)(C(F)(F)F)[C@H]2C)ccc(F)c1F` [Compound 55], with under 1 nM; and `COc1c([C@H]2[C@H](C(=O)Nc3cccc(P(C)(C)=O)c3)S[C@@](C)(C(F)(F)F)[C@H]2C)ccc(F)c1F` [Compound 57], with under 1 nM. Still for that read-out and setting: the same measure for `C[C@H]1[C@@H](c2ccc(F)c3c2CCC3)[C@H](C(=O)Nc2ccc(F)c(S(N)(=O)=O)c2)S[C@@]1(C)C(F)(F)F` [Compound 59-b]: under 0.1 nM; for `C[C@H]1[C@@H](c2ccc(F)c3c2CCC3)[C@H](C(=O)Nc2ccc(F)c(C(N)=O)c2)S[C@@]1(C)C(F)(F)F` [Compound 61-b]: under 0.1 nM; for `C[C@H]1[C@@H](c2ccc(F)c3c2CCC3)[C@H](C(=O)Nc2ccc(F)c(S(C)(=N)=O)c2)S[C@@]1(C)C(F)(F)F` (some centres unmarked) [Compound 63-b]: under 0.1 nM. Still for that read-out and setting: the same measure for `C[C@H]1[C@@H](c2ccc(F)c3c2CCC3)[C@H](C(=O)Nc2ccc(F)c(S(C)(=O)=O)c2)S[C@@]1(C)C(F)(F)F` [Compound 65-b]: under 0.1 nM.

Turning to `C[C@H]1[C@@H](c2ccc(F)c3c2CCC3)[C@H](C(=O)Nc2ccnc(P(C)(C)=O)c2)S[C@@]1(C)C(F)(F)F` [Compound 68-b], the IC50 was under 1 nM. The same measure, in the same setting: then `COc1c([C@@H]2C[C@](C)(C(F)(F)F)S[C@H]2C(=O)Nc2ccc(F)c(S(N)(=O)=O)c2)ccc(F)c1F` [Compound 72-a], with under 0.1 nM. In the case of `COc1c([C@@H]2C[C@](C)(C(F)(F)F)S[C@H]2C(=O)Nc2ccnc(P(C)(C)=O)c2)ccc(F)c1F` [Compound 74-a], the IC50 is under 1 nM.

Regarding `COc1c(C2C(C(=O)Nc3ccnc(S(N)(=O)=O)c3)SC(C)(C(F)(F)F)C2C)ccc(F)c1F` (centres unmarked) [Mixture of compounds 5-3a and 5-3b], the IC50 was under 1 nM. Turning to `COc1c(C2C(C(=O)Nc3ccc(CO)nc3)SC(C)(C(F)(F)F)C2C)ccc(F)c1F` (centres unmarked) [Mixture of compounds 18-2a and 18-2b], the IC50 was under 1 nM.

As to `COc1c(C2C(C(=O)Nc3cnc(CO)nc3)SC(C)(C(F)(F)F)C2C)ccc(F)c1F` (centres unmarked) [Mixture of compounds 19-2a and 19-2b], the IC50 was under 1 nM. The same measure, in the same setting: the same measure for `COc1c(C2C(C(=O)Nc3ccnc(S(C)(=O)=O)c3)SC(C)(C(F)(F)F)C2C)ccc(F)c1F` (centres unmarked) [Mixture of compounds 25-1a and 25-1b]: under 0.1 nM. On the same count and under the same terms, then `COc1c(C2C(C(=O)Nc3ccc(F)c(S(C)(=O)=O)c3)SC(C)(C(F)(F)F)C2C)ccc(F)c1F` (centres unmarked) [Mixture of compounds 26-1a and 26-1b], with under 1 nM; and `COc1c([C@H]2[C@H](C(=O)Nc3cccc(C(N)=O)c3)S[C@@](C)(C(F)(F)F)[C@H]2C)ccc(F)c1F` [Mixture of compounds 28-2a and 28-2b], with under 0.1 nM; and `COc1cc(F)ccc1C1C(C(=O)Nc2ccnc(C(N)=O)c2)SC(C)(C(F)(F)F)C1C` (centres unmarked) [Mixture of compounds 34-1a and 34-1b], with under 1 nM. The same measure, in the same setting: then `[2H]C([2H])([2H])Oc1c([C@H]2[C@H](C(=O)Nc3ccnc(C(N)=O)c3)S[C@@](C)(C(F)(F)F)[C@H]2C)ccc(F)c1F` [Mixture of compounds 35-8a and 35-8b], with under 0.1 nM; and `COc1c(C2C(C(=O)Nc3cc[nH]c(=O)c3)SC(C)(C(F)(F)F)C2C)ccc(F)c1F` (centres unmarked) [Mixture of compounds 36-2a and 36-2b], with under 0.1 nM; and `CC1C(c2ccc(F)c3c2CCC3)C(C(=O)Nc2cccc(C(N)=O)c2)SC1(C)C(F)(F)F` (centres unmarked) [Mixture of compounds 37-1a and 37-1b], with under 1 nM. For the molecule `C[C@H]1[C@@H](c2ccc(F)c3c2OCC3(C)C)[C@H](C(=O)Nc2ccnc(C(N)=O)c2)S[C@@]1(C)C(F)(F)F` [Mixture of compounds 76-8a and 76-8b], the IC50 is under 1 nM. Turning to `COc1c([C@H]2[C@H](C(=O)Nc3ccnc(P(C)(C)=O)c3)S[C@@](C)(C(F)(F)F)[C@H]2C)ccc(F)c1F` [Trifluoroacetate of compound 58], the IC50 is under 1 nM.

System in the next data set: not listed separately
The data set can be described thus: Pharmacokinetic test in mice. Format: in vivo. Conditions: C57, mouse, PO 30 mg/kg, plasma. How it is done:
Biological Test Example 3: Pharmacokinetic Test in Mice
Experimental animals: C57 mice, 22-25 g, 6 mice/compound.
Experimental design: on the day of the experiment, C57 mice were randomly grouped according to their body weights. The animals were fasted with water available for 12-14 h one day before the administration, and were fed 4 h after the administration.
Before and after the administration, 0.06 mL of blood was taken from the orbit under isoflurane anesthesia, and placed in an EDTAK2 centrifuge tube. Centrifugation was performed at 5000 rpm at 4° C. for 10 min, and the plasma was collected. The blood collection time points for both the intravenous administration group and the intragastric administration group were: 0, 5 min, 15 min, 30 min, 1 h, 2 h, 4 h, 7 h, 24 h and 48 h. Before analysis and detection, all samples were stored at −80° C. The samples were quantitatively analyzed by LC-MS/MS.
`COc1c(C2CC(C)(C(F)(F)F)SC2C(=O)Nc2ccnc(C(N)=O)c2)ccc(F)c1F` (single isomer, unassigned) [Compound 31-1P1] gave an AUC(0-t) of 61600 ± 9480 ng·h/mL.
